In patent US20060079497A1, “Lavendamycin analogues and methods of synthesizing and using lavendamycin analogues” (Ball State University, priority 2004, published 2006):

Experiments:
tumor = assay: Antitumor activity (applicant's earlier studies)
mice [1] = assay: Animal toxicity studies in mice (National Cancer Institute and other studies); settings: SCID mice, 300 mg/kg/day for 10 days
[2] = target: T1, HIV reverse transcriptase (HIV-RT) (Human immunodeficiency virus type 1 group M subtype B, UniProt P04585); assay: HIV-RT assay (3H-TTP incorporation, modified assay of Okada et al.); type: biochemical; settings: Mean IC50 ± SEM (no. of expts), 50% inhibition of HIV RT activity toward 1 unit of enzyme
T1 construct: 1 unit/mL of HIV-RT (Worthington Biochemical Corp., Freehold, N.J.); purchased Worthington Biochemical Corp., Freehold, N.J
Description: Briefly, the analogues were initially dissolved in either DMSO or HEPES buffer (pH 7.2) and then diluted to the appropriate concentration before addition to the assay mixtures. […] Several control wells without any inhibitors were also included on each microtiter plate. The reactions were allowed to proceed for 1 h at 37° C. […] A more detailed description of reaction conditions is provided below in the Examples. The concentration of drug which inhibited 50% of the enzyme activity (IC50) was determined by using the computer software program Calcusyn, which plots the dose-effect curves from the inhibition data and calculates the IC50 for each drug.
The assay procedure described below is adapted from Okada et al. (Okada, H.; Mukai, H.; Inouye, Y; Nakamura, S. “Biological Properties of Streptonigrin Derivatives II. Inhibition of Reverse Transcriptase Activity,” J. Antibiot., 1986, 39, 306-308). The lavendamycin analogs were initially dissolved in DMSO at a concentration of 1 mg/mL. Occasionally, mild sonication and heat were used to dissolve the less soluble compounds. The dissolved analogs were then serially diluted in distilled water to achieve concentrations in the final reaction mixture ranging from 0.5-15 μM. In addition to the lavendamycin analogs, the final reaction mixture contained 100 mM Tris-HCl (pH 8.0), 5 mM MgCl2, 5 mM dithiothreitol, 60 mM NaCl, 0.2 mM [^3H] thymidine triphosphate(5 μCi well), 4 μg/mL poly (rA)-oligo(dT)12-18 (Amersham Pharmacia Biotech, Piscataway, N.J.) and 1 unit/mL of HIV-RT (Worthington Biochemical Corp., Freehold, N.J.) in a total volume of 300 μL. For each assay, the reaction mixture containing 8× buffer, double distilled H2O, ^3HTTP, template-primer and HIV-RT was pre-mixed in a 15-mL sterile tube in quantities required for the particular experiment. After adding the enzyme, the reaction mixture was mixed and kept on ice. The inhibitors, either AZT(Moravek Biochemicals, Brea, Calif.), analogs or both were added to appropriate wells in a 24 well microtiter plate and ddH2O was added to each well to bring the volume of all test wells to 100 μL. Two hundred μL of the chilled reaction mixture was then added to each of the test wells, mixed, and incubated for 1 hr at 37° C. Several control wells with no inhibitors were included on each test plate. After stopping the reactions with 25 μL 0.1 M EDTA, triplicate samples of 15 μL from each test well were spotted on DE81 ion exchange filter paper squares (Whatman Paper, Maidstone, England). After drying, each filter was washed for 10 minutes three times with 5% TCA-NHPO4, three times with 0.6M NaCl-[…] Na Citrate, one time with ddH2O and one time with 95% ethanol. After drying the individual filter papers were added to 5 mL Scintiverse E (Fisher Scientific, Chicago, Ill.) scintillation fluid and the amount of 3H-TTP uptake measured as counts per minute on a Beckman liquid scintillation counter. […] The results were then analyzed using Calcusyn, a windows software program for dose effect analysis designed by T. -C. Chou and M. P. Hayball and published by Biosoft® (UK).

[3] = Cytotoxicity assay (MTT), normal murine spleen cells stimulated with concanavalin A; type: cell-based; settings: normal murine spleen cells stimulated with concanavalin A; normal mouse spleen stimulated with concanavalin A inhibited by 50%; read-out: Mean CC50 (Normal Mouse Spleen) ± SEM (no. of expts)
Description: (§1) Normal murine spleen cells were washed in HBSS, cultured at 2.5×10^6 or 5×10^6 cells per mL in RPMI 1640 (with Hepes) complete medium with 2 mM-L-glutamine, 1 mM sodium pyruvate, 0.05 mM β-mercaptoethanol, penicillin, streptomycin, and amphotericin B with 10% fetal calf serum and Concanavalin A (ConA) at 2.5 μg/mL in a 96-well microtiter plate. A range of diluted analogs were added to triplicate culture wells and the cells were incubated at 37° C. in 5% CO2. Wells containing cells, media and ConA were used as controls. Forty-eight hours post incubation, 20 μL of the vital dye MTT (3-[4,5-Dimethylthiazol-2-yl]-2,5-diphenyltetrazolium bromide; thiazolyl blue) at 5 mg/mL was added to each well and the cultures re-incubated for 4-6 hours. Following centrifugation, the supernatants were decanted and the stained cells were resuspended in 100 μL of 0.4% HCl acidified isopropanol. The optical densities of each well were read at 600 nm using a Cambridge Technologies series 700 microplate reader. The human lymphocytic cell lines CCRF-CEM (ATCC: HTB 176) and H-9 (ATCC: CCL 119) were subcultured from recently cultured cells grown in complete RPMI 1640 medium as described above but without the β-mercaptoethanol and ConA at 6.25×10^5 and 2×10^6 per mL in a 96 well culture plate. These cell numbers represented log phase and early stationary phase of the freshly cultured cells. As these cell lines rapidly reproduce without mitogenic stimulation, Con A was not used. A range of analogues or media alone was added in triplicate to the cultures and the cultures incubated, pulsed with MTT, harvested and their growth estimated as described above for the murine cultures. The CC50 or the concentration of drug which inhibited cell growth as estimated by MTT formazan production to 50% of that of untreated control cells was determined by linear interpolation for each lavendamycin analog.

[4] = Cytotoxicity assay (MTT), human lymphocytic cell lines, pooled data; type: cell-based; settings: human lymphocytic cell lines CCRF-CEM and H-9, pooled data, H-9 and CEM inhibited by 50%, read-out: Mean CC50 (Human Cell Lines) ± SEM (no. of expts)
Description: as §1

[5] = Animal toxicity studies in mice (National Cancer Institute and other studies); settings: mouse, in vivo
mice [6] = settings: cited from earlier work

Question: With `COC(=O)c1cc2c([nH]c3ccccc32)c(-c2ccc3c(n2)C(=O)C(N)=C(OC)C3=O)n1` as the molecule, how does the melting point read?
Answer: > 280 °C

Question: Which melting point does the source give for `COC(=O)c1nc(-c2ccc3c(n2)C(=O)C(N)=C(OC)C3=O)c2[nH]c3ccccc3c2c1C` here?
Answer: > 280 °C

Question: For `COC(=O)c1nc(-c2ccc3c(n2)C(=O)C(N)=CC3=O)c2[nH]c3ccccc3c2c1C` [Compound 2b, lavendamycin methyl ester, reference compound], which antitumor activity (tumor) is on record?
Answer: highly active antitumor agents

Question: With `CCCCCCCCOC(=O)c1cc2c([nH]c3ccccc32)c(-c2ccc3c(n2)C(=O)C(NC(C)=O)=CC3=O)n1` [Compound 15, 7-N-Acetyldemethyllavendamycin n-Octyl Ester] as the molecule, how does the tolerability (mice [1]) read?
Answer: no animal death or loss of weight

Question: Which IC50 [2] does the source give for `NC(=O)c1cc2c([nH]c3ccccc32)c(-c2ccc3c(n2)C(=O)C(N)=CC3=O)n1` [Compound 21, Demethyllavendamycin Amide] here?
Answer: 20.5 ± 5 µM

Question: And the CC50 at 48 h [3]?
Answer: 15 ± 2 µM

Question: And the CC50 at 48 h [4]?
Answer: 17 ± 3 µM

Question: What about the antitumor activity (tumor) of the same molecule?
Answer: highly active antitumor agents

Question: And the MTD [5]?
Answer: 400 mg/kg

Question: With `COc1cccc2c1C(=O)c1c(O)c3c(c(O)c1C2=O)C[C@@](O)(C(=O)CO)C[C@@H]3O[C@H]1C[C@H](N)[C@H](O)[C@H](C)O1` [adriamycin] as the molecule, how does the maximally tolerated dose (mice [6]; once a week for three weeks) read?
Answer: below 10 mg/kg

Question: Which maximum tolerated dose (mice [6]; reported) does the source give for `Cc1c(C(=O)O)nc(-c2ccc3c(n2)C(=O)C(N)=CC3=O)c2[nH]c3ccccc3c12` [lavendamycin] here?
Answer: 12.8 mg/kg

Question: For `COC1=C(N)C(=O)c2nc(-c3nc(C(=O)O)c(C)c(-c4ccc(OC)c(OC)c4O)c3N)ccc2C1=O` [streptonigrin], which lethal dose (mice [6]) is on record?
Answer: ≥ 0.4 mg/kg
